Source: PMC9917560, “Design, Synthesis and Antimicrobial Evaluation of New N-(1-Hydroxy-1,3-dihydrobenzo[c][1,2]oxaborol-6-yl)(hetero)aryl-2-carboxamides as Potential Inhibitors of Mycobacterial Leucyl-tRNA Synthetase” (International Journal of Molecular Sciences, 2023)
Values after ≈ are worked out from the molar mass of the structure shown. Like-named read-outs stand apart in the source and are kept apart here.

Tests used:
[1] = test system: Mycobacterium tuberculosis H37Ra ITM-M006710 (ATCC 9431); experiment: Antimycobacterial microdilution (resazurin) vs Mtb H37Ra; format: cell-based
[2] = test system: Escherichia coli CCM 3954 (ATCC 25922); experiment: Antibacterial microdilution broth (EUCAST); format: cell-based; details: Escherichia coli, read-out: MIC Escherichia coli
[3] = test system: Mycobacterium avium DSM 44,156 (ATCC 25291); experiment: Antimycobacterial microdilution (resazurin) vs M. avium; format: cell-based; details: Mycobacterium avium, Middlebrook 7H9, resazurin; read-out: MIC M. avium
[4] = test system: Candida parapsilosis CCM 8260 (ATCC 22019); experiment: Antifungal microdilution broth (EUCAST); format: cell-based; details: Lodderomyces parapsilosis, read-out: MIC Candida parapsilosis
[5] = test system: Klebsiella pneumoniae CCM 4415 (ATCC 10031); experiment: Antibacterial microdilution broth (EUCAST); format: cell-based; details: Klebsiella pneumoniae, read-out: MIC Klebsiella pneumoniae
[6] = test system: Candida krusei CCM 8271 (ATCC 6258); experiment: Antifungal microdilution broth (EUCAST); format: cell-based; details: Pichia kudriavzevii, read-out: MIC Candida krusei
[7] = test system: Lichtheimia corymbifera CCM 8077; experiment: Antifungal microdilution broth (EUCAST); format: cell-based; details: Lichtheimia corymbifera, read-out: MIC Lichtheimia corymbifera
[8] = test system: Mycobacterium tuberculosis H37Rv CNCTC My 331/88 (ATCC 27294); experiment: Microplate Alamar Blue assay vs Mtb H37Rv; format: cell-based; details: Mycobacterium tuberculosis
[9] = test system: Staphylococcus epidermidis CCM 4418 (ATCC 12228); experiment: Antibacterial microdilution broth (EUCAST); format: cell-based; details: read-out: MIC Staphylococcus epidermidis
[10] = test system: Candida tropicalis CCM 8264 (ATCC 750); experiment: Antifungal microdilution broth (EUCAST); format: cell-based; details: read-out: MIC Candida tropicalis
[11] = test system: Aspergillus fumigatus ATCC 204305; experiment: Antifungal microdilution broth (EUCAST); format: cell-based; details: Aspergillus fumigatus, read-out: MIC Aspergillus fumigatus
[12] = test system: Acinetobacter baumannii DSM 30007 (ATCC 19606); experiment: Antibacterial microdilution broth (EUCAST); format: cell-based; details: read-out: MIC Acinetobacter baumannii
[13] = test system: Trichophyton interdigitale CCM 8377 (ATCC 9533); experiment: Antifungal microdilution broth (EUCAST); format: cell-based; details: Trichophyton interdigitale, read-out: MIC Trichophyton interdigitale
[14] = test system: Mycobacterium kansasii DSM 44,162 (ATCC 12478); experiment: Antimycobacterial microdilution (resazurin) vs M. kansasii; format: cell-based; details: read-out: MIC M. kansasii
HepG2 cell line = experiment: Cytotoxicity screening, CellTiter 96 assay; details: for IC50: Homo sapiens, HepG2, 24 h, read-out: IC50 HepG2
[15] = test system: Pseudomonas aeruginosa CCM 3955 (ATCC 27853); experiment: Antibacterial microdilution broth (EUCAST); format: cell-based; details: read-out: MIC Pseudomonas aeruginosa
[16] = test system: Enterococcus faecalis CCM 4224 (ATCC 29212); experiment: Antibacterial microdilution broth (EUCAST); format: cell-based; details: read-out: MIC Enterococcus faecalis
[17] = test system: Mycolicibacterium smegmatis DSM 43,465 (ATCC 607); experiment: Antimycobacterial microdilution (resazurin) vs M. smegmatis; format: cell-based; details: Middlebrook 7H9, resazurin, read-out: MIC M. smeg.
[18] = test system: Candida albicans CCM 8320 (ATCC 24433); experiment: Antifungal microdilution broth (EUCAST); format: cell-based; details: Candida albicans, read-out: MIC Candida albicans
[19] = test system: Aspergillus flavus CCM 8363; experiment: Antifungal microdilution broth (EUCAST); format: cell-based; details: Aspergillus flavus, read-out: MIC Aspergillus flavus
[20] = test system: Mycolicibacterium aurum DSM 43,999 (ATCC 23366); experiment: Antimycobacterial microdilution (resazurin) vs M. aurum; format: cell-based; details: read-out: MIC M. aurum
[21] = test system: Staphylococcus aureus subsp. aureus CCM 4223 (ATCC 29213); experiment: Antibacterial microdilution broth (EUCAST); format: cell-based; details: read-out: MIC Staphylococcus aureus subsp. aureus
[22] = test system: methicillin-resistant Staphylococcus aureus subsp. aureus (MRSA) CCM 4750 (ATCC 43300); experiment: microbe, parasite or virus in culture; format: cell-based; details: read-out: MIC Methicillin-resistant Staphylococcus aureus subsp. aureus

Nc1ncc(Cl)nc1C(=O)Nc1ccc2c(c1)B(O)OC2 [Compound 7, 3-amino-6-chloro-N-(1-hydroxy-1,3-dihydrobenzo[c][1,2]oxaborol-6-yl)pyrazine-2-carboxamide]
MIC ([1]; read-out: MIC Mtb H37Ra, Middlebrook 7H9, resazurin, recalculated from µg/mL): > 1850 µM | MIC ([2]; 24 h): > 125 µM | MIC ([2]; 48 h): > 125 µM | MIC [3]: 411 µM (≈ 125 µg/mL) | MIC ([4]; 24 h): > 125 µM | MIC ([4]; 48 h): > 125 µM | MIC ([5]; 24 h): > 125 µM | MIC ([5]; 48 h): > 125 µM | MIC ([6]; 24 h): > 125 µM | MIC ([6]; 48 h): > 125 µM | MIC ([7]; CCM8077, 24 h): > 125 µM | MIC ([7]; CCM8077, 48 h): > 125 µM | MIC ([8]; pH 6.6, read-out: MIC Mtb H37Rv, MABA, Middlebrook 7H9 pH 6.6, recalculated from µg/mL): > 328 µM | MIC ([9]; 24 h): > 125 µM | MIC ([9]; 48 h): > 125 µM | MIC ([10]; 24 h): > 125 µM | MIC ([10]; 48 h): > 125 µM | MIC ([11]; ATCC204305, 24 h): > 125 µM | MIC ([11]; ATCC204305, 48 h): > 125 µM | MIC ([12]; 24 h): > 125 µM | MIC ([12]; 48 h): > 125 µM | MIC ([13]; 72 h): > 125 µM | MIC ([13]; 120 h): > 125 µM | melting point: 242.9 to 244.4 °C | MIC [14]: > 1850 µM | IC50 (HepG2 cell line): > 100 µM | toxicity to HepG2 up to highest tested concentration (HepG2 cell line; tested up to 500 µM (2, 3), 250 µM (12, 17), 100 µM (6, 7, 11) because of solubility): non-toxic | MIC ([15]; 24 h): > 125 µM | MIC ([15]; 48 h): > 125 µM | MIC ([16]; 24 h): > 125 µM | MIC ([16]; 48 h): > 125 µM | MIC [17]: 411 µM (≈ 125 µg/mL) | MIC ([18]; 24 h): > 125 µM | MIC ([18]; 48 h): > 125 µM | MIC ([19]; CCM8363, 24 h): > 125 µM | MIC ([19]; CCM8363, 48 h): > 125 µM | MIC [20]: > 1850 µM | MIC ([21]; 24 h): > 125 µM | MIC ([21]; 48 h): > 125 µM | MIC ([22]; 24 h): > 125 µM | MIC ([22]; 48 h): > 125 µM

O=C(Nc1ccc2c(c1)B(O)OC2)c1ncc[nH]c1=O [Compound 8, N-(1-hydroxy-1,3-dihydrobenzo[c][1,2]oxaborol-6-yl)-3-oxo-3,4-dihydropyrazine-2-carboxamide]
MIC ([1]; Middlebrook 7H9, resazurin, recalculated from µg/mL, read-out: MIC Mtb H37Ra): 231 µM (≈ 62.5 µg/mL) | MIC ([2]; 24h incubation): > 500 µM | MIC ([2]; 48h incubation): > 500 µM | MIC [3]: 57.6 µM (≈ 15.6 µg/mL) | MIC ([4]; 24h incubation): > 500 µM | MIC ([4]; 48h incubation): > 500 µM | MIC ([5]; 24h incubation): > 500 µM | MIC ([5]; 48h incubation): > 500 µM | MIC ([6]; 24h incubation): > 500 µM | MIC ([6]; 48h incubation): > 500 µM | MIC ([7]; CCM8077, 24h incubation): > 500 µM | MIC ([7]; CCM8077, 48h incubation): > 500 µM | MIC ([8]; pH 6.6, MABA, Middlebrook 7H9 pH 6.6, recalculated from µg/mL, read-out: MIC Mtb H37Rv): 92.2 µM (≈ 25 µg/mL) | MIC ([9]; 24h incubation): 500 µM (≈ 136 µg/mL) | MIC ([9]; 48h incubation): 500 µM (≈ 136 µg/mL) | MIC ([10]; 24h incubation): > 500 µM | MIC ([10]; 48h incubation): > 500 µM | MIC ([11]; ATCC204305, 24h incubation): > 500 µM | MIC ([11]; ATCC204305, 48h incubation): > 500 µM | MIC ([12]; 24h incubation): > 500 µM | MIC ([12]; 48h incubation): > 500 µM | MIC ([13]; 72h incubation): > 500 µM | MIC ([13]; 120h incubation): > 500 µM | melting point: 326.4 to 328.3 °C (dec.) | MIC [14]: 231 µM (≈ 62.5 µg/mL) | IC50 (HepG2 cell line): > 1000 µM | MIC ([15]; 24h incubation): > 500 µM | MIC ([15]; 48h incubation): > 500 µM | MIC ([16]; 24h incubation): > 500 µM | MIC ([16]; 48h incubation): > 500 µM | MIC [17]: 28.8 µM (≈ 7.81 µg/mL) | MIC ([18]; 24h incubation): > 500 µM | MIC ([18]; 48h incubation): > 500 µM | MIC ([19]; CCM8363, 24h incubation): > 500 µM | MIC ([19]; CCM8363, 48h incubation): > 500 µM | MIC ([20]; Middlebrook 7H9, resazurin): 28.8 µM (≈ 7.81 µg/mL) | MIC ([21]; 24 h): 125 µM (≈ 33.9 µg/mL) | MIC ([21]; 48 h): 125 µM (≈ 33.9 µg/mL) | MIC ([22]; 24 h): 125 µM (≈ 33.9 µg/mL) | MIC ([22]; 48 h): 125 µM (≈ 33.9 µg/mL)
